Laboratory results reported in US11174301B2 (Takeda Pharmaceutical Company Limited, priority 2017, dated 2021).

Experiments:
Format in all cases: in vivo
[1] = test system: C57BL/6J mice; test: Oral glucose tolerance test (2); conditions: 3 nmol/kg, s.c. 72 hours before glucose loading, 30 minutes after oral glucose, control group = 100
Experimental: Oral Glucose Tolerance Test (2)
An oral glucose tolerance test (OGTT) was carried out using C57BL/6J mice with a […].

[2] = test system: ferrets; test: Morphine-induced acute emetic model in ferrets; conditions: for Ferrets in which the vomiting symptom was observed: 30 nmol/kg s.c., morphine 0.6 mg/kg s.c. 4 hours after administration, monitored 60 minutes, FIG. 6A; for Ferrets in which the vomiting symptom was observed / Vomiting symptom, morphine 120 hours after administration: n=4; for Vomiting symptom, morphine 120 hours after administration: 144 μg/kg (30 nmol/kg) s.c., morphine 0.6 mg/kg s.c. 120 hours after administration, FIG. 6B; for Morphine-induced emesis: 1 nmol/kg s.c. 30 minutes before morphine (0.6 mg/kg, s.c.)
Experimental: 4. Effect of Subcutaneously Administered GIP Agonist Analogue in Morphine-Induced Acute Emetic Model
Male ferrets (4-month-old) were repeatedly used until 8-month-old. To evaluate the antiemetic effect, the GIP agonist analogues other than natural human GIP were subcutaneously administered 30 minutes before morphine administration. Natural human GIP was subcutaneously administered 5 minutes before morphine administration.
At the time of each of 4 hours, or 120 hours after administration, 0.6 mg/kg of morphine was subcutaneously administered. Up to 60 minutes after morphine administration, the condition of the ferrets was monitored to record the frequencies and time points of abdominal contraction motions, vomiting behaviors, licking with the tongue, and fidgety behavior occurring.

[3] = test system: ferrets; test: Cisplatin-induced delayed vomiting model in ferrets; conditions: monitored 72 hours
Experimental: Up to 72 hours after cisplatin administration, the condition of the ferrets was monitored to record the frequencies and time points of abdominal contraction motions and vomiting behaviors occurring.

[4] = test system: C57BL/6J mice; test: Oral glucose tolerance test (1); conditions: 0.03 nmol/kg, s.c. 30 minutes before glucose loading, control group = 100; for Rate of increase in blood glucose level (%) 30 min: 30 minutes after oral glucose; for Rate of increase in blood glucose level (%) 60 min: 60 minutes after oral glucose
Experimental: Oral Glucose Tolerance Test (1)
An oral glucose tolerance test (OGTT) was carried out using C57BL/6J mice with a […].

[5] = test system: ferrets; test: Cisplatin-induced acute vomiting model in ferrets
Experimental: Test Example 4: Vomiting Suppression Test in Ferrets
The ferret test was carried out by Nissei Bilis Co., Ltd. (Shiga prefecture, Japan). Cisplatin (10 mg/kg i.p.) was administered to male ferrets (10-week-old, n=6) to induce acute vomiting. […] The frequency of emesis (feeling queasy, vomiting) was monitored over a period of 8 hours after cisplatin administration.
Up to 6 hours after cisplatin administration, the condition of the ferrets was monitored to record the frequencies and time points of abdominal contraction motions and vomiting behaviors occurring.

[6] = test system: beagles; test: PYY-1119-induced vomiting in dogs; conditions: for Frequency of vomiting: 2-hour observation
[7] = test system: male C57BL/6J mice; test: Conditioned taste aversion test in mice (PYY-1119-induced)
Experimental: Test Example 3: Conditioned Taste Aversion Test in Mice (FIG. 1A, FIG. 1B)
Additionally, the test compound or a solvent is subcutaneously administered simultaneously with PYY-1119.
On day 2, only a solvent is administered 10 minutes after presenting tap water.
On day 4, only tap water is presented.
On day 5, a test of selection from the bottles of saccharine water and tap water is carried out and preferential selection of saccharine water is evaluated.

Substance | Rate of increase in blood glucose level (%) 30 min [4] | Rate of increase in blood glucose level (%) 60 min [4] | Morphine-induced emesis ([2]; FIG. 3, FIG. 4) | further results
H-MeTyr-Aib-Glu-Gly-Thr-Iva-Ile-Ser-Asp-Tyr-Ser-Ile-Aib-Leu-Asp-Arg-Lys(Oda-GGGGG-)-Ala-Gln-Aib-Asn-Phe-Val-Asn-Trp-Iva-Leu-Ala-Gln-Arg-Pro-Ser-Ser-Gly-Ala-Pro-Pro-Pro-Ser-NH2 [Compound 349] | – | – | – | Rate of increase in blood glucose level (%) 72 hr [1]: 69%; Ferrets in which the vomiting symptom was observed [2]: none of the 4 ferrets; Vomiting symptom, morphine 120 hours after administration [2]: suppression of the vomiting symptom was noted
H-MeTyr-Aib-Glu-Gly-Thr-Iva-Ile-Ser-Asp-Tyr-Ser-Ile-Aib-Lys(Eda-GGGGG-)-Asp-Arg-Aib-Ala-Gln-Aib-Asn-Phe-Val-Asn-Trp-Iva-Leu-Ala-Gln-Arg-Pro-Ser-Ser-Gly-Ala-Pro-Pro-Pro-Ser-NH2 [Compound 341] | – | – | – | Cisplatin-induced delayed vomiting symptom ([3]; 144 μg/kg (30 nmol/kg) s.c. 34 hours after cisplatin 5 mg/kg i.p.): suppression of the vomiting symptom was noted; Rate of increase in blood glucose level (%) 72 hr [1]: 47%; Ferrets in which the vomiting symptom was observed [2]: none of the 4 ferrets; Vomiting symptom, morphine 120 hours after administration [2]: none of the 4 ferrets
H-Tyr-Aib-Glu-Gly-Thr-Val-Val-Ser-Leu-Tyr-Ser-Ile-Aib-Leu-Asp-Arg-Gln-Ala-Gln-Aib-Glu-Phe-Val-Arg-Trp-Leu-Leu-Arg-Gly-Gly-Pro-Ser-Ser-Gly-Ala-Pro-Pro-Pro-Ser-Arg-NH2 [Compound 30] | 96% | 85% | – | –
H-Tyr-Aib-Glu-Gly-Thr-Val-Val-Ser-Leu-Tyr-Ser-Ile-Aib-Leu-Asp-Lys-Gln-Ala-Gln-Aib-Glu-Phe-Val-Lys-Trp-Aib-Leu-Lys-Gly-Gly-Pro-Ser-Ser-Gly-Ala-Pro-Pro-Pro-Ser-Lys-NH2 [Compound 42] | 70% | 43% | – | –
H-Tyr-Aib-Glu-Gly-Thr-Val-Val-Ser-Leu-Tyr-Ser-Ile-Aib-Leu-Asp-Lys-Gln-Ala-Gln-Aib-Glu-Phe-Val-Lys-Trp-Leu-Leu-Lys-Gly-Gly-Pro-Ser-Ser-Gly-Ala-Pro-Pro-Pro-Ser-Lys-NH2 [Compound 6] | 56% | 31% | completely attenuated | Cisplatin-induced acute emesis (frequency of emesis) ([5]; 167 nmol/kg/hour subcutaneously injected from 1 hour before cisplatin (10 mg/kg i.p.), monitored 8 hours, FIG. 2A): completely eliminated the acute emesis; Frequency of vomiting ([6]; 150 nmol/kg s.c. 10 minutes before PYY-1119 (10 μg/kg, s.c.), FIG. 7A): 0 to 3 times; PYY-1119-induced taste aversion ([7]; 1, 3, 10, 30 or 100 nmol/kg s.c. simultaneously with PYY-1119 (10 nmol/kg, s.c.), FIG. 1A): suppressed the PYY-1119-induced taste aversion in a dose-dependent manner
Methyl-Tyr-Aib-Glu-Gly-Thr-Iva-Ile-Ser-Asp-Tyr-Ser-Ile-Aib-Leu-Asp-Arg-Aib-Ala-Gln-Aib-Asn-Phe-Val-Asn-Trp-Iva-Leu-Ala-Gln-Arg-Pro-Ser-Ser-Gly-Ala-Pro-Pro-Pro-Ser-Arg-NH2 [Compound 113] | 48% | 11% | – | Morphine-induced emesis ([2]; 0.1 nmol/kg, FIG. 5): suppressed the morphine-induced emesis
Methyl-Tyr-Aib-Glu-Gly-Thr-Iva-Ile-Ser-Asp-Tyr-Ser-Ile-Ala-Leu-Asp-Arg-Aib-Ala-Gln-Aib-Asn-Phe-Val-Asn-Trp-Leu-Leu-Ala-Gln-Arg-Pro-Ser-Ser-Gly-Ala-Pro-Pro-Pro-Ser-Arg-NH2 [Compound 104] | 31% | 8% | suppressed the morphine-induced emesis | –
Methyl-Tyr-Aib-Glu-Gly-Thr-Phe-Ile-Ser-Asp-Tyr-Ser-Ile-Ala-Leu-Asp-Arg-Aib-His-Gln-Aib-Asn-Phe-Val-Asn-Trp-Iva-Leu-Ala-Gln-Arg-Pro-Ser-Ser-Gly-Ala-Pro-Pro-Pro-Ser-Arg-NH2 [Compound 117] | 51% | 16% | suppressed the morphine-induced emesis | Latency of the vomiting symptom (time from cisplatin administration to initial occurrence) ([3]; […] (0.3 nmol/kg) or 15 μg/kg (3 nmol/kg) s.c. 34 hours after cisplatin 5 mg/kg i.p., FIG. 2C): delayed; Cisplatin-induced acute vomiting symptom ([5]; 0.15, 0.5, 1.5, 5 and 15 μg/kg (0.03, 0.1, 0.3, 1 and 3 nmol/kg) s.c. 1 hour before cisplatin 10 mg/kg i.p., monitored 6 hours, FIG. 2B): suppression of the vomiting symptom was noted in a dose-dependent manner; Frequency of vomiting ([6]; 10 nmol/kg s.c. 1 hour before PYY-1119 (10 μg/kg, s.c.), FIG. 7B): 0 to 3 times; Average suppression rate of the frequency of vomiting ([6]; 10 nmol/kg s.c. 1 hour before PYY-1119, versus medium group): 93%; PYY-1119-induced taste aversion ([7]; 0.003, 0.01, 0.03, 0.1, 0.3 or 1 nmol/kg s.c. simultaneously with PYY-1119 (10 nmol/kg, s.c.), FIG. 1B): suppressed the PYY-1119-induced taste aversion in a dose-dependent manner
Methyl-Tyr-Aib-Glu-Gly-Thr-Phe-Ile-Ser-Asp-Tyr-Ser-Ile-Ala-Leu-Asp-Arg-Ile-Ala-Gln-Gln-Asp-Phe-Val-Asn-Trp-Leu-Leu-Ala-Gln-Arg-Pro-Ser-Ser-Gly-Ala-Pro-Pro-Pro-Ser-Arg-NH2 [Compound 59] | 41% | 23% | – | –
